Results published in US20260158074A1, “A Cell Surface Marker Signature for Arrhythmogenic Pluripotent Stem Cell-Derived Cardiomyocytes” (Western Sydney Local Health District, priority 2022, published 2026).

How the values were obtained:
[1] = system: hPSC SCVI8; assay: DEAB-treated cardiomyocyte differentiation, RT-PCR at day 14; assay type: cell-based, human; conditions: DEAB 1 nM-100 μM, day 3 to 7 or day 5 to 7
Experimental: hPSC SCVI8 were cultured in Matrigel® (Corning, Cat. No. 354277) coated petri dishes in complete mTeSR™ Plus basal medium (StemCell Technologies, Cat. No. 100-0276) supplemented with 20% (v/v) mTeSR™ Plus 5× supplement (StemCell Technologies) and 0.5% (v/v) streptomycin and penicillin (ThermoFisher, Cat. No. 15140163) at 37° C. in 5% CO2. Media was changed daily and cells passaged when confluency reached approximately 80%.
Cardiomyocyte differentiation was achieved using small-molecule modulators of canonical Wnt signalling as described by Lian et al. (Lian et al. […]; 8(1):162-175), but with the addition of 1 nM, 1 μM or 100 μM 4-diethylaminobenzaldehyde (DEAB, Sigma Merck, Cat. No. D86256) at either day 3 or 5 of differentiation (FIG. 9a.). In brief, hPSC SCVI8 cells from confluent dishes were washed once with Dulbeco's Phosphate Buffered Saline (DPBS) without calcium and magnesium (Lonza, Cat. No. 17-512F), and harvested with TrypLE™ Express Enzyme (ThermoFisher, Cat. No. 12604021) and seeded at a concentration of 3.75×10^5 cells/mL in Matrigel® coated 12-well plates at a volume of 2 mL of complete mTeSR Plus basal medium and 10 μM Y-27632 (RHO/ROCK) inhibitor (StemCell Technologies, Cat. No. 072304). At day 0 of differentiation, cells were washed once using DPBS and transferred to mesoderm induction media that consisted of 6 μM CHIR99021 (GSK3 inhibitor, Tocris, Cat. No. 4423) in complete Roswell Park Memorial Institute (RPMI) 1640 medium, no glutamine (ThermoFisher, Cat. No. 21870092) supplemented with 2% (v/v) B-27 supplement, minus insulin (ThermoFisher, Cat. No. A1895601), 0.5% (v/v) streptomycin and penicillin and 1% (v/v) GlutaMAX™ supplement (ThermoFisher, Cat. No. 35050061). At day 1, CHIR99021 was removed, and cells maintained in complete RPMI minus insulin. At day 3, cells were transferred to cardiac induction media that consisted of 5 μM IWP-2 (Tocris, Cat. No. 3533) in complete RPMI minus insulin and was removed at day 5. At day 7 of differentiation, cells were maintained in complete RPMI supplemented with 2% (v/v) B-27™ Supplement (50×) (ThermoFisher, Cat. No. 17504-001), 0.5% (v/v) streptomycin and penicillin and 1% (v/v) GlutaMAX™ supplement. The media was changed every 2-3 days. Cells were harvested at day 14 for quantitative real-time polymerase chain reaction (RT-PCR).
Total cellular RNA was extracted using the Isolate II RNA Mini Kit (Bioline, Cat. No. BIO-52073) as per the manufacturer's instructions. Reverse transcription was performed with M-MLV Reverse Transcriptase (Promega, Cat. No. M1701) following the manufacturer's protocol. mRNA gene expression was assessed by qPCR using SensiFAST™ SYBR® No-ROX Kit (Meridian Bioscience, Cat. No. BIO-98050) on the Bio-Rad CFX384 Real-Time PCR detection system, with the following PCR conditions: 95° C. for 2 min and 40 cycles of 95° C. for 5 s, 60° C. for 10 s and 72° C. for 15 s, followed by melt curve analysis. All primers used for detection of mRNA expression are outline in Table 3. All data was normalised to the reference gene 18S and normalised to control cells (non-treated PSC-CM).

[2] = system: PSC-CMs cultured in monolayer; assay: In-vitro spontaneous beat rate of PSC-CMs under anti-arrhythmic drugs; assay type: cell-based, human; conditions: 0-100 μM drug concentrations
Excerpt: FIG. 3. […] A further 2 animals underwent sham infarction and vehicle injection. (b) Representative CMR reconstruction (created with ADAS 3D) merged with epicardial voltage map, used to choose, and annotate border and infarct zone injection sites (black circles). (c) Plot depicting the percentage of time per day each cell (red), cell and drug (blue), or vehicle (green) recipient spent in ventricular arrhythmia over course of study protocol. […] (f) Dose-dependent suppression of PSC-CM contraction rate using amiodarone (dark purple, square) and ivabradine (light purple, circle) in vitro (0-100 μM drug concentrations). […] (h) Telemetry strip from representative cell and anti-arrhythmic recipient showing predominantly sinus rhythm with occasional ventricular ectopic beat. (i-k) Arrythmia parameters from day 0 to day 28 for each subject, grouped by treatment allocation (presented as mean±SEM). […]
Given the automatic mechanism for PSC-CM EAs, the inventors hypothesised that suppressing the rate of graft automaticity below that of the native sinus node would reduce arrhythmia burden. […] To further interrogate this finding the beat rates of sinus rhythm and EAs for each animal were analysed.

[3] = system: H9 human embryonic stem cell line containing a gCaMP6f reporter, differentiating aggregates; assay: Bioreactor PSC-CM differentiation with retinoic acid signalling activated: cTnT flow cytometry, qPCR, scRNA-seq, beat frequency; assay type: cell-based
Experimental: The H9 cell line containing the gCaMP6f fluorescent calcium reporter was used for all experiments (provided by University of Queensland StemCore facility). Each production run was started from a frozen working cell bank (WCB) cryovial, which was expanded for 8 days in monolayer on matrigel (Corning) using the commercially available medium mTeSR™ Plus (Stem Cell Technologies) (FIG. 1). On Day −3, cells were inoculated at a density of 2.5-3.0×10^5 cells/mL in mTeSR 3D supplemented with 10 μM Y-27632 (TOCRIS Bioscience) and 10 ug/mL of a thermoresponsive polymer pNIPAM conjugated to fibronectin (Chen, X. et al. Tissue Eng Part C Methods 24, 146-157) to form aggregates. A DASbox (Eppendorf) stirred tank bioreactor system was used for aggregate formation and suspensions controlled at 37.2° C., pH 7.2, and 30% DO. At day −1, rapamycin (Merck) was added to a final concentration of 5 nM to enhance survival during differentiation. […]
The expression of cTnT was measured on a Cytoflex Flow Cytometer (Beckman Coulter). […]
Reactions were performed in technical triplicate. Quantitative PCR was performed on the BioRad CFX96 Real-Time PCR Detection System with standard cycling parameters described in the master mix protocol. […] Fold difference in expression was calculated using the comparative CT formula, using GAPDH cDNA from a reference sample. […]

CCN(CC)c1ccc(C=O)cc1 [DEAB, 4-diethylaminobenzaldehyde]
expression level of IRX4 ([1]; RT-PCR day 14): no significant difference | expression level of KCNJ3 ([1]; RT-PCR day 14): significant lower expression levels | expression level of MYH7 ([1]; RT-PCR day 14): no significant difference | expression level of MYL2v ([1]; RT-PCR day 14): no significant difference | expression level of SHOX2 ([1]; RT-PCR day 14): significant lower expression levels | expression level of cTnT ([1]; RT-PCR day 14, relative to 18S, versus non-treated PSC-CM): no significant difference

COc1cc2c(cc1OC)CC(=O)N(CCCN(C)C[C@H]1Cc3cc(OC)c(OC)cc31)CC2 [Ivabradine]
spontaneous beat rate of PSC-CMs [2]: dose-dependent reduction in the spontaneous beat rate

CC1=C(/C=C/C(C)=C/C=C/C(C)=C/C(=O)O)C(C)(C)CCC1 [Retinoic acid, retinoic acid]
cTnT expression ([3]; RA signalling activated day 2 to day 6, n=12, control differentiations in parallel 83.6±7.0%): 62.4±33.1% | rate of spontaneous contraction of aggregates ([3]; day 15 before aggregate dissociation, n=6, control 14.2±5.5 b.p.m): 50.7±16.8 b.p.m

CCCCc1oc2ccccc2c1C(=O)c1cc(I)c(OCCN(CC)CC)c(I)c1 [amiodarone]
spontaneous beat rate of PSC-CMs [2]: dose-dependent reduction in the spontaneous beat rate
